The source of these data is US20200032313A1 (SANYO CHEMICAL INDUSTRIES, LTD., priority 2017, published 2020).

A short description of the series: physchem. To be noted: pKa of the ionizable group in water at 25° C., two values where two ionizable groups.

Broadly, the pKa is the pH at which an ionisable group is half protonated. The low end stands for a group that gives up its proton readily, the high end for a group that holds its proton tightly.

Protocol: The pKa of the ionizable group in water is a value determined at 25° C.

In turn, `CCCCCCCCCCCC[N+](C)(C)C.[Cl-]` [Surfactant (A2-1), lauryl trimethyl ammonium chloride] returned a pKa of 14.
